System: L. major lysate proteins
Assay: Multitargeted bead mixture chemoproteomics, single concentration competition, proteome-wide
Format: binding
Conditions: for fold change: vehicle control = 1

Nc1nc2[nH]cc(CCc3ccc(C(=O)N[C@@H](CCC(=O)O)C(=O)O)cc3)c2c(=O)[nH]1 [PTX, pemetrexed]
fold change (protein LMJF.15.0040 HY[…], CONSERVED (Possible lysine decarboxylase, putative)): 0.69 | fold change vs vehicle control (protein LMJF.15.0690 HY[…], CONSERVED): 1.2 | fold change (protein LMJF.15.1010 GLUTAMATE DEHYDROGENASE): 1 | fold change (protein LMJF.15.1190 HY[…], CONSERVED (cyclic nucleotide-binding domain containing protein, putative)): 0.98 | fold change vs vehicle control (protein LMJF.16.0520 HY[…], CONSERVED): 0.76 | fold change vs vehicle control (protein LMJF.16.0540 ASPARTATE CARBAMOYLTRANSFERASE, PUTATIVE): 0.92 | fold change relative to vehicle control (protein LMJF.16.0760, TRANSALDOLASE, PUTATIVE): 1.18 | fold change vs vehicle control (protein LMJF.16.0940 DYNEIN LIGHT CHAIN, PUTATIVE): 1.1 | fold change relative to vehicle control (protein LMJF.16.1180, COATOMER DELTA SUBUNIT-LIKE PROTEIN): 1.15 | fold change relative to vehicle control (protein LMJF.16.1320, CYTOCHROME C, PUTATIVE): 1.56 | fold change relative to vehicle control (protein LMJF.16.1420, HY[…], CONSERVED): 1.13 | fold change relative to vehicle control (protein LMJF.17.0081, […] 1-ALPHA): 1.06 | fold change relative to vehicle control (protein LMJF.18.0270, GLYCOGEN SYNTHASE KINASE, PUTATIVE): 0.92 | fold change (protein LMJF.18.0580 P[…]-COA HYDRATASE, PUTATIVE): 0.93 | fold change relative to vehicle control (protein LMJF.18.0680, CITRATE SYNTHASE, PUTATIVE): 1.08 | fold change vs vehicle control (protein LMJF.18.1010 DYNEIN LIGHT CHAIN 2B, CYTOPLASMIC, PUTATIVE): 1.03 | fold change vs vehicle control (protein LMJF.18.1210 PROLYL-TRNA SYNTHETASE, PUTATIVE,BI[…]-TRNA SYNTHETASE, PUTATIVE): 0.97 | fold change vs vehicle control (protein LMJF.18.1370 HEAT SHOCK PROTEIN, PUTATIVE): 1.02 | fold change (protein LMJF.19.0200 ADP,ATP CARRIER PROTEIN 1, MIT[…], PUTATIVE): 1.02 | fold change vs vehicle control (protein LMJF.19.1120 […]-ATP-ASE SUBUNIT, PUTATIVE): 0.91 | fold change vs vehicle control (protein LMJF.19.1160 HY[…], CONSERVED): 0.92 | fold change vs vehicle control (protein LMJF.19.1560 INOSINE-5'-MONOPHOSPHATE DEHYDROGENASE): 0.92 | fold change relative to vehicle control (protein LMJF.19.1620, POTASSIUM VOLTAGE-GATED CHANNEL, PUTATIVE): 1.13 | fold change vs vehicle control (protein LMJF.20.1280 SMALL MYR[…] 4, PUTATIVE): 0.89 | fold change (protein LMJF.21.0810 METHIONYL-TRNA SYNTHETASE, PUTATIVE): 0.98 | fold change (protein LMJF.21.1450 ARGININE N-METHYLTRANSFERASE, TYPE II, PUTATIVE): 0.98 | fold change vs vehicle control (protein LMJF.21.1830 […] 5 SUBUNIT, PUTATIVE,20S […] ALPHA 5, (PUTATIVE)): 0.96 | fold change (protein LMJF.22.0230 AMINO ACID PERMEASE, PUTATIVE): 1.09 | fold change vs vehicle control (protein LMJF.22.0570 […] SUBUNIT 1, PUTATIVE): 1.04 | fold change vs vehicle control (protein LMJF.22.0730 HY[…], CONSERVED): 0.96 | fold change (protein LMJF.22.0770 NADH-CYTOCHROME B5 REDUCTASE, PUTATIVE): 0.82 | fold change relative to vehicle control (protein LMJF.23.0020, HY[…], CONSERVED): 1.35 | fold change relative to vehicle control (protein LMJF.23.0040, PEROXIDOXIN): 0.99 | fold change relative to vehicle control (protein LMJF.23.0080, HY[…], CONSERVED): 0.97 | fold change (protein LMJF.23.0210 ATP-BINDING CASSETTE PROTEIN SUBFAMILY C, MEMBER 1, PUTATIVE): 0.87 | fold change (protein LMJF.23.0370 CYTOCHROME C OXIDASE SUBUNIT 10, PUTATIVE): 0.9 | fold change relative to vehicle control (protein LMJF.23.0540, ACETYL-COA SYNTHETASE, PUTATIVE): 1.05 | fold change vs vehicle control (protein LMJF.23.0560 KINESIN, PUTATIVE): 1.12 | fold change vs vehicle control (protein LMJF.23.1410 HY[…], CONSERVED): 0.97 | fold change relative to vehicle control (protein LMJF.24.0070, HY[…], CONSERVED): 1.03 | fold change (protein LMJF.24.0140 ANKYRIN/TPR REPEAT PROTEIN): 0.86 | fold change (protein LMJF.24.0400 HY[…], CONSERVED (TPR repeat, putative)): 0.87 | fold change relative to vehicle control (protein LMJF.24.1510, IGE-DEPENDENT HISTAMINE-RELEASING FACTOR, PUTATIVE): 1.15 | fold change relative to vehicle control (protein LMJF.24.1630, SUCCINATE DEHYDROGENASE FLAVOPROTEIN, PUTATIVE): 0.98 | fold change relative to vehicle control (protein LMJF.24.2060, TRANSKETOLASE): 0.96 | fold change relative to vehicle control (protein LMJF.25.0010, BETA GALACTOFURANOSYL TRANSFERASE): 1.17 | fold change relative to vehicle control (protein LMJF.25.0910, C[…]): 1.55 | fold change vs vehicle control (protein LMJF.25.1130 CYTOCHROME C OXIDASE VII, PUTATIVE): 0.92 | fold change relative to vehicle control (protein LMJF.25.1180, ATPASE BETA SUBUNIT, PUTATIVE): 1 | fold change vs vehicle control (protein LMJF.25.1610 HY[…], CONSERVED): 0.99 | fold change vs vehicle control (protein LMJF.25.1620 HY[…], CONSERVED): 1.01 | fold change (protein LMJF.25.2340 SERINE/THREONINE-PROTEIN KINASE, PUTATIVE,PROTEIN KINASE, PUTATIVE): 0.74 | fold change relative to vehicle control (protein LMJF.26.0630, HY[…], CONSERVED): 0.9 | fold change vs vehicle control (protein LMJF.26.1240 HEAT SHOCK PROTEIN 70-RELATED PROTEIN): 0.88 | fold change (protein LMJF.26.1710 CYTOCHROME C OXIDASE SUBUNIT V, PUTATIVE): 0.94 | fold change vs vehicle control (protein LMJF.26.2480 CDP-DIACYLGLYCEROL--INOSITOL 3-PHOSPHATIDYLTRANSFERASE, PUTATIVE): 1.06 | fold change vs vehicle control (protein LMJF.26.2560 HY[…], CONSERVED): 0.66 | fold change vs vehicle control (protein LMJF.27.0190 […] 7 SUBUNIT, PUTATIVE): 0.91 | fold change (protein LMJF.27.0650 HY[…], CONSERVED): 0.99 | fold change (protein LMJF.27.0700 HY[…], CONSERVED): 0.86 | fold change vs vehicle control (protein LMJF.27.0760 GTP-binding protein homologue): 1.01 | fold change vs vehicle control (protein LMJF.27.1060 CYSTEINE DESULFURASE, PUTATIVE): 0.96 | fold change vs vehicle control (protein LMJF.27.1110 MIT[…] BINDING PROTEIN 1,GBP21, MRP1): 1.06 | fold change (protein LMJF.27.1250 HY[…], CONSERVED (Serine-threonine kinase receptor-associated protein, putative)): 0.88 | fold change relative to vehicle control (protein LMJF.27.1390, 60S ACIDIC RIBOSOMAL SUBUNIT PROTEIN, PUTATIVE): 1.07 | fold change (protein LMJF.27.1460 […]-ATP-ASE SUBUNIT 3, PUTATIVE): 0.89

Reference: article PMC6199744, “Development of Chemical Proteomics for the Folateome and Analysis of the Kinetoplastid Folateome” (ACS Infectious Diseases, 2018)
